The record followed here is US6949558B2, “Enhancement of taxane-based chemotherapy by a CDK1 antagonist” (Yale University, priority 2001, dated 2005).

Assay [1] relates to survivin expression in MCF-7 cells. The experiment in a line: Survivin expression by Western blotting in MCF-7 cells. The following applies: 100 nM adriamycin. The assay is classed as cell-based, human. The procedure:
(§1) Cell Cultures, Proteins and Antibodies: Breast carcinoma MCF-7 and cervical carcinoma HeLa cells (American Type Culture Collection, Manassas, Va.) were maintained in culture according to the manufacturer's specifications. For treatment with genotoxic agents, HeLa or MCF-7 cells were incubated with vehicle (DMSO) or taxol (2 μM, Sigma Chemical Co., St. Louis, Mo.), adriamycin (100 nM, Sigma), cis-platin (3 μM, Sigma) or subjected to ultraviolet B (UVB) irradiation at 50 or 300 J/m^2. In some experiments, HeLa or MCF-7 treated with taxol, adriamycin or UVB as described above were incubated with inhibitors of transcription (actinomycin D, 1 μg/ml) or translation (cycloheximide, 2 mg/ml) before determination of protein expression by Western blotting. […] A replication-deficient adenovirus encoding wild type survivin (pAd-Survivin) or control encoding Green Fluorescence Protein (pAd-GFP) was generated using the pAd-Easy system as described previously (M. Mesri et al. (2001) J. Clin. Invest. 108: 981-90), and propagated in HEK293 cells with purification by CsCl banding. […] Antibodies to p34^cdc2 or bcl-2 were obtained from Pharmingen (San Diego, Calif.) and R&D, respectively. An antibody to β-actin was from Sigma and antibodies to MPM-2 mitotic phosphoproteins was from Upstate Biotechnology (Lake Placid, N.Y.).
(§2) In some experiments, total RNA was extracted from MCF-7 cells at various time intervals after adriamycin treatment, and hybridized with 32 P-labeled survivin cDNA as described previously. Radioactive bands were detected by autoradiography. […] In other experiments, samples were transferred to nylon membranes and analyzed by Western blotting with antibodies to p34^cdc2 (1 μg/ml), survivin (2 μg/ml), or survivinT34* (5 μg/ml).
In general terms: A western blot detects proteins with antibodies after separation by electrophoresis.

The test system of assay [2] is MCF-7 xenografts. The assay is classed as in vivo. The following applies: adriamycin 2 mg/kg or flavopiridol 15 mg/kg alone, i.p. The source says:
Each complete cycle was separated by 2 d without treatment.
This test generates a P value testing the null hypothesis that the survival curves are identical in the overall populations.

In assay [3] the test system is survivin mRNA in MCF-7 cells. Put plainly: Northern hybridization of survivin mRNA in MCF-7 cells. The following applies: adriamycin-treated MCF-7 cells. It is filed as cell-based, human. As for the experimental part: as §2
Assay [4] deals with HeLa cells. Put plainly: Apoptosis by DNA content analysis and flow cytometry in HeLa cells. The assay is classed as cell-based, human. (In general: In flow cytometry, cells or beads pass a laser one at a time.)
The test system of assay [5] is p34^cdc2 kinase activity (MPM-2 epitope) in MCF-7 cells. Put plainly: MPM-2 mitotic phosphoepitope expression (p34^cdc2 kinase activity) in MCF-7 cells. It is filed as cell-based, human. The following applies: adriamycin-induced G2/M arrest. The procedure: MPM-2 Mitotic Phosphoepitope Expression: For detection of mitotic phosphoproteins (D. D. Vandre et al. (1989) J. Cell Sci. 94: 245-58), MCF-7 cells (1-2×10^5 cells/60 mm dish) were treated with taxol (2 μM), adriamycin (100 nM), 50 or 300 J/m^2 UVB irradiation and cultured for 0, 8, 16, 24 or 36 h at 37° C. Cells were fixed in 70% ethanol, labeled with MPM-2 antibody (6 μg/ml) followed by addition of goat anti-mouse FITC (Boehringer Mannheim) for 1 h at 22° C. in the presence of 5 μg/ml propidium iodide (PI) containing 50 μg/ml RNase A. Samples were analyzed on a FACScan (Becton Dickinson, Mountain View, Calif.), using CellQuest software.
MPM-2 Mitotic Phosphoepitope Expression: For detection of mitotic phosphoproteins (D. D. Vandre et al. (1989) J. Cell Sci. 94: 245-258), MCF-7 cells (1-2×10^5 cells/60 mm dish) were treated with taxol (0.2 μM), or vincristine (100 nM) for increasing time intervals (8-36 h) at 37° C. Cells were fixed in 70% ethanol, labeled with MPM-2 antibody (6 μg/ml; Upstate Biotechnology, Lake Placid, N.Y.) followed by addition of goat anti-mouse FITC (Boehringer Mannheim) for 1 h at 22° C. in the presence of 5 μg/ml propidium iodide containing 50 μg/ml RNAse A. Samples were analyzed on a FACScan (Becton Dickinson, Mountain View, Calif.), using CellQuest software. Data are expressed as %MPM-2 positive cells in the entire population.

Assay [6] relates to MCF-7 cells. The experiment in a line: Apoptosis by DNA content analysis and flow cytometry in MCF-7 cells. It is filed as cell-based, human. As for the experimental part:
Cervical carcinoma HeLa (functionally inactivated p53) cells or breast carcinoma MCF-7 (wild type p53) cells were plated at 50-60% confluency in C-6 wells. […]
(§3) After 4, 8, 16, and 32 hours of incubation, without removing taxol from the wells, purvalanol A was added at three increasing concentrations, 1, 10 and 20 uM (FIG. 1). A control was performed with addition of purvalanol A at the 0-h time point.
(§4) The cell populations were harvested at increasing time intervals from the 0-h time point or corresponding to the addition of purvalanol A. Apoptosis was analyzed by DNA content analysis and flow cytometry (DAPI staining).

For assay [7], the system named is caspase-9. Put plainly: Caspase-9 processing by Western blotting in HeLa cells. The note with it: taxol 0.2 μM, Purvalanol A 20 μM or sequential combination, 16 h.
Assay [8] deals with p34^cdc2 kinase activity (MPM-2 epitope) in HeLa cells. Put plainly: MPM-2 mitotic phosphoepitope expression (p34^cdc2 kinase activity) in HeLa cells. It is filed as cell-based, human.
Assay [9] has as its system survivin expression in HeLa cells. The experiment in a line: Survivin expression by Western blotting in HeLa cells. It is filed as cell-based, human. The procedure: as §1, §2
In other experiments, HeLa cells were treated with taxol (0.2 μM) for 16 h followed by the DNA damaging agent adriamycin (100 nM, Sigma) or the nucleoside analog 5-Fluorouracil (500 μM, Sigma) for 8-32 h at 37° C. […] In some experiments, HeLa cells were transfected by lipofectamine with a minimal survivin promoter construct upstream of a luciferase reporter gene (pLuc-cyc1.2), as described (F. Li et al. (1998) Nature 396: 580-584). Cells were treated with taxol (2 μM) or UVB (50 J/m2), and analyzed for changes in luciferase activity at increasing time intervals (12-36 h) in a luminometer. Luciferase values were normalized to β-galactosidase expression. […] The immune complexes were separated by SDS gel electrophoresis and analyzed with antibodies to survivin or a-survivinT34* by Western blotting.

The test system of assay [10] is HeLa cells. Put plainly: Apoptosis by DNA content analysis and flow cytometry in HeLa cells. The assay is classed as cell-based, human. As for the experimental part: Cervical carcinoma HeLa (functionally inactivated p53) cells or breast carcinoma MCF-7 (wild type p53) cells were plated at 50-60% confluency in C-6 wells. Cells were treated with taxol at 0.2 μM for 0 to 32 hours in complete media.
as §3, §4
The source holds these as a separate data set.

Assay [11] deals with MCF-7 tumors. The experiment in a line: Breast cancer xenograft model (Example 8). The following applies: taxol alone 2.5 or 5 mg/kg, Purvalanol A alone 20 mg/kg, i.p. It is filed as in vivo, CB17 SCID/beige mice. The procedure: Breast Cancer Xenograft Model: All experiments involving animals were approved by the institutional animal cure and use committee. Six- to eight-week old female CB17 SCID/beige mice (Taconic Farms, Germantown, N.Y.) were injected s.c. into the flanks with 2.5×10^6 exponentially growing MCF-7 cells in 250 μl of sterile PBS, pH 7.4. […] Animals were injected i.p. with taxol alone (2.5 or 5 mg/kg), Purvalanol A alone (20 mg/kg) or the sequential combination of taxol-Purvalanol A for two consecutive days each divided by a day with no treatment. For single agent treatment, vehicle was given in place of taxol or Purvalanol A with the same schedule. Each complete cycle was separated by 2 d without treatment. Tumor volume was measured in the three dimensions with a caliper. Animals with tumor burden >3000 mm^3 were sacrificed (Survival).
Statistical Analysis: All in vitro experiments were repeated at least three times. […] The survival curves were compared using the log-rank test. This test generates a P value testing the null hypothesis that the survival curves are identical in the overall populations.

For assay [12], the system named is survivin expression in PC3 cells. Put plainly: Survivin expression by Western blotting in PC3 cells. The assay is classed as cell-based. The following applies: taxol then Purvalanol A.
Assay [13] has as its system survivin phosphorylation on Thr^34 in HeLa cells. The experiment in a line: Survivin phosphorylation on Thr^34 in HeLa cells (immunoprecipitation, Western blotting). The note with it: taxol 0.2 μM 16 h then Purvalanol A 20 μM 16 h. The assay is classed as cell-based, human. The procedure: A. In vitro kinase assay. […] Radioactive bands were detected by autoradiography. […] The immune complexesb were analyzed by Western blotting (WB) with an antibody to Thr^34-phosphorylated survivin (a-survivinT34*, top panel) or with an antibody to survivin (a-survivin, lower panel) followed by chemiluminescence. For all panels, relative molecular weight markers in kDa are shown on the left.
as §2
Luciferase values were normalized to β-galactosidase expression.

The mark [14] stands for this setting: taxol 2 μM, adriamycin 100 nM, cis-platin 3 μM (Example 7).

Where “and” joins values, the source holds several entries; their conditions need not be identical. Identical values can stand only once.

As to `COc1cccc2c1C(=O)c1c(O)c3c(c(O)c1C2=O)C[C@@](O)(C(=O)CO)C[C@@H]3O[C@H]1C[C@H](N)[C@H](O)[C@H](C)O1` [adriamycin, doxorubicin], in assay [1], the survivin expression result is given as “increased survivin expression”. The “kinetics of tumor growth vs vehicle” value in [2] is “did not affect the kinetics of tumor growth”. In [3], the “survivin mRNA” value is listed as “no detectable increase in survivin mRNA”. Moreover, the “enhancement of apoptosis vs single agent treatment” value in assay [4] (taxol 0.2 μM 16 h then adriamycin 100 nM or 5-Fluorouracil 500 μM) is “did not result in enhanced apoptosis”. Besides, the “residual cell population exhibiting MPM-2 expression” value in assay [5] is on record as 20-25%. For the same compound, the apoptosis in [6] (adriamycin 100 nM alone, three values given, their conditions not stated) is 2% and 3% and 10%; in [6] (setting [14]) it was “negligible apoptosis”. Also, in assay [6] (setting [14]), the cell cycle arrest entry is listed as “G2/M arrest”. For the same compound, in [6] (taxol then adriamycin 100 nM and 200 nM in place of purvalanol A), the “enhancement of taxol-induced cell death” value was “did not enhance taxol-induced cell death”.
With `CC(C)[C@H](CO)Nc1nc(Nc2cccc(Cl)c2)c2ncn(C(C)C)c2n1` [Purvalanol A], the caspase-9 processing entry in assay [7] is reported as “did not result in significant caspase-9 cleavage”. Besides, the “inhibition of kinase activity (MPM-2 epitope)” value in [8] (16 h after addition of purvalanol A in taxol-treated cells, cell line not stated) is listed as 70-80%. The “MPM-2 mitotic phosphoepitope expression” value was “completely suppressed MPM-2 mitotic phosphoepitope expression” in [8] (HeLa, taxol 0.2 μM 16 h then Cdk inhibitor for 16 h (Purvalanol A 10 μM, alsterpaullone 20 μM, flavopiridol 250 nM, olomoucine 400 μM)) and “completely suppressed MPM-2 mitotic phosphoepitope expression” in assay [8] (HeLa, taxol 0.2 μM 16 h then Cdk inhibitor for 32 h). For the same compound, in [8] (HeLa, vincristine 100 nM then Purvalanol A 20 μM, earliest time point tested of 8 h), the “p34^cdc2 kinase activity” value is “suppressed p34^cdc2 kinase activity”. Also, the survivin levels entry in assay [9] (Purvalanol A alone or Purvalanol A followed by taxol) is listed as “did not affect survivin levels”. For the same compound, the survivin expression entry in assay [9] (taxol 0.2 μM 16 h then Purvalanol A 20 μM 16 h) was “inhibition of increased survivin expression after taxol treatment”; in assay [9] (vincristine then Purvalanol A), “reversed the increase in survivin expression”. Besides, in assay [4] (after 96 h), the “vincristine-induced apoptosis in the presence or the absence of Purvalanol A” value is “indistinguishable”. Further, in assay [4] (purvalanol A 1, 10, 20 uM alone or followed by 0.2 uM taxol), the “apoptosis, purvalanol A alone or reversed schedule” value is “no apoptosis at all”. Besides, the apoptosis in assay [4] (taxol 0.2 μM then 20 uM purvalanol A, 16 h after purvalanol A addition) is given as around 90%; in assay [4] (vincristine then Purvalanol A, throughout a 32-h culture) it was “did not result in induction of apoptosis”; in assay [10] (HeLa, taxol 0.2 μM then 20 uM purvalanol A, 8 h after purvalanol A addition) it was 40%. The “effect of sequential addition to taxol-treated cells” value in assay [4] (taxol 0.2 μM then Purvalanol A) is “escape from the mitotic block, and massive apoptosis”. Moreover, in [10] (HeLa, 16 h, taxol 0.2 μM, Purvalanol A 20 μM, alone or sequential), the “cell population with hypodiploid (apoptotic) DNA content / cell death” value turned out to be 6%. In assay [10] (HeLa, taxol 0.2 μM or purvalanol A 1-20 uM alone (Examples 1, 2)), the cell cycle arrest result is given as “strong M arrest”. Also, in [10] (purvalanol A 1, 10 and 20 uM added after taxol 0.2 μM), the “effect of purvalanol A on taxol-treated cells, concentration dependence” value is on record as “dose dependent”. Moreover, in assay [6] (taxol 0.2 μM then purvalanol A), the “efficacy of taxol followed by purvalanol A compared with HeLa cells” value is recorded as “nearly identical”. Also, the “synergy with vincristine treatment” value in assay [6] (vincristine 10 nM and 100 nM then purvalanol A 10 uM) was “did not synergize with vincristine treatment”. Besides, the “kinetics of tumor growth” value in assay [11] was “did not affect the kinetics of tumor growth”. Further, the “effect on taxol-induced increase of survivin expression” value in [12] is “reversed”. Besides, in assay [13], the “phosphorylation of endogenous survivin on Thr^34” value was “suppressed phosphorylation of endogenous survivin on Thr^34”.
